Consider one molecule from patent publication US8748428B2, “Use of a PKC inhibitor” (Novartis AG, priority 2010, dated 2014).

One test relates to TMD8 xenograft. Put plainly: Subcutaneous TMD8 xenograft model, tumor growth. It is filed as in vivo, SCID-beige mice. The note with it: 80 mg/kg, tid, daily oral dosing; p<0.05 vs vehicle. The protocol:
CD79 mutant ABC DLBCL were also shown to be sensitive to PKC inhibition in an in vivo setting by using a subcutaneous TMD8 xenograft model. Female SCID-beige mice were purchased from Charles River Labs (Wilmington Mass.) and housed in temperature and a humidity-controlled vivarium with a 12 hours light cycle and provided food and water ad libitum. Mice were implanted subcutaneously with 10×10^6 TMD8 cells in 50% matrigel (BD Biosciences, #354234) in the right dorsal axillary region, and animals were randomized into treatment groups when tumor sizes average ˜160 mm^3 (21 days post-implantation). AEB071 was formulated in 20% PEG400 and 4.5% 0.1 M HCl in D5W. Tumor volume was measured by callipering in 2 dimensions and calculated as (Length×Width^2)/2. Animals were callipered twice weekly during treatment to monitor effects on tumor growth. […] T/C percentage was calculated as the mean change in tumor volumes of treated animals divided by the mean change in tumor volumes of vehicle animals and multiplied by 100. Data are expressed as mean±SEM, and differences are considered statistically significant at p<0.05 by Student t-test.

In another test the test system is IL-6 mRNA in HBL1 cells. Description: IL-6 mRNA expression (Taqman). It is filed as cell-based. The note with it: HBL1, 24 hours, 10 nM to 10 uM. From the text:
(§1) Constitutive activation of the NFkB pathway is a molecular hallmark of ABC DLBCL cells and is required for their proliferation and survival. See Davis, R. E., et al., J Exp Med, 194(12), 1861-1874 (2001). To confirm that the growth inhibitory effect in response to PKC inhibition is mediated through modulation of NFkB pathway signaling, the expression of NFkB pathway genes were monitored in response to AEB071 treatment. The NFkB-pathway-induced cytokine IL-6 was used as a marker to study NFkB pathway modulation by PKC inhibitors. See Lam, L. T., et al., Blood 111(7):3701-13 (2008). To measure IL-6 mRNA levels, cells were plated in […] plates in 2 ml media at 2M/ml, then treated with DMSO or inhibitors from 10 nM to 10 uM (4-fold dilutions) for 24 hours. Total RNA was harvested using the RNeasy kit (Qiagen, #74104) and cDNA was made from 1 μg total RNA using the High Capacity cDNA kit (ABI, #4368814), according to manufacturer's protocols. Taqman probes (ABI: IL-6, Hs00174131_m1) were used with Gene Expression Master Mix (ABI, 4369510) to determine the amount of mRNA expression for IL-6 relative to an endogenous control gene (ABI: TBP, 4326322E) and the DMSO control using the delta-delta Ct method.
(In general: Quantitative PCR measures a nucleic acid by following its amplification.)

Test [1] concerns IL-6 mRNA in OCI-Ly3 cells. Put plainly: IL-6 mRNA expression (Taqman). Type of test: cell-based. The note with it: OCI-Ly3 (mutant CARD11), 24 hours, 10 nM to 10 uM.
Text: as §1

Test [2] deals with IL-6 mRNA in OCI-Ly10 cells. Put plainly: IL-6 mRNA expression (Taqman). Type of test: cell-based. The note with it: OCI-Ly10, 24 hours, 10 nM to 10 uM.
Text: as §1

Another test concerns IL-6 mRNA in TMD8 cells. Description: IL-6 mRNA expression (Taqman). Type of test: cell-based. The note with it: TMD8, 24 hours, 10 nM to 10 uM.
Text: as §1

Test [3] deals with IL-10 mRNA in TMD8 xenograft tumor. Put plainly: IL-10 mRNA expression in TMD8 xenograft tumor tissue (PD arm). It is filed as in vivo, SCID-beige mice. The method, then: To confirm that the growth inhibitory effect in response to PKC inhibition is mediated through modulation of NFkB pathway signaling, the mRNA expression of IL-10 was monitored in response to AEB071 treatment in a PD arm of the in vivo study. Mice were implanted with TMD8 cells as described above, and when the tumor volume reached ˜160 mm^3, a single dose of 80 mg/kg AEB071 was administered. Tumor samples were harvested and snap frozen in liquid nitrogen, at 1 hour or 8 hours following the single does of AEB071. Tissue samples were homogenized and lysed in RLT buffer (Qiagen, #74104) with Reagent DX (Qiagen, 19088) using the TissueLyser II (Qiagen, 85300). Total RNA was harvested using the RNeasy kit (Qiagen, #74104) and cDNA was made from 1 μg total RNA using the High Capacity cDNA kit (ABI, #4368814), according to manufacturer's protocols. The IL-10 Taqman probe (ABI, Hs00174086_m1) was used with Gene Expression Master Mix (ABI, 4369510) to determine the amount of mRNA expression for IL-10 relative to an endogenous control gene (ABI: TBP, 4326322E) and the DMSO control using the delta-delta Ct method. […] Consistent with the in vitro kinetics of NFkB target gene downregulation by AEB071, IL-10 mRNA expression was unaffected after just 1 hour of treatment (see, FIG. 3A).

Regarding `CN1CCN(c2nc(C3=C(c4c[nH]c5ccccc45)C(=O)NC3=O)c3ccccc3n2)CC1` [AEB071, 3-(1H-Indol-3-yl)-4-[2-(4-methylpiperazin-1-yl)quinazolin-4-yl]-1H-pyrrole-2,5-dione], the “T/C (tumor growth)” value with TMD8 xenograft was found to be 17%. The “IL-6 mRNA expression” value with IL-6 mRNA in HBL1 cells is “dose-dependent decrease”; in test [1], “unaffected”; in test [2], “dose-dependent decrease”; in the test on IL-6 mRNA in TMD8 cells it was “dose-dependent decrease”. Moreover, the “IL-10 mRNA expression in xenograft tumor tissue” value in test [3] (1 hour after single dose of 80 mg/kg) is “unaffected”; in test [3] (8 hours after single dose of 80 mg/kg) it was “decrease”.
